Assay results from ChEMBL document CHEMBL1151324, “Cytotoxic geranyl stilbenes from Macaranga schweinfurthii” (J Nat Prod, 1998).
Values after ≈ are worked out from the molar mass of the structure shown.

Key:
HCT-116 = assay: Cytotoxicity against human HCT116 cells; format: functional
KM12 = assay: Cytotoxicity against human KM12 cells; format: functional
SK-MEL-2 = assay: Cytotoxicity against human SK-MEL-2 cells; format: functional
BT-549 = assay: Cytotoxicity against human BT549 cells; format: functional
NCI-H522 = assay: Cytotoxicity against human NCI-H522 cells; format: functional
HOP-92 = assay: Cytotoxicity against human HOP92 cells; format: functional
SN12C = assay: Cytotoxicity against human SN12C cells; format: functional
HCT-15 = assay: Cytotoxicity against human HCT15 cells; format: functional
MOLT-4 = assay: Cytotoxicity against human MOLT4 cells; format: functional
HL-60 = assay: Cytotoxicity against human HL60 cells; format: functional
SF-295 [1] = assay: Cytotoxicity against human SF295 cells after 48 hrs; format: functional, cell-based; settings: SF-295, 48 h
IGROV-1 = assay: Cytotoxicity against human IGROV1 cells; format: functional
SF-295 [2] = assay: Cytotoxicity against human SF295 cells after 1 hr compound washout; format: functional, cell-based; settings: SF-295, 1 h
CCRF-CEM = assay: Cytotoxicity against human CCRF-CEM cells; format: functional
NCI-H226 = assay: Cytotoxicity against human NCI-H226 cells; format: functional
NCI-H322M = assay: Cytotoxicity against human NCI-H322M cells; format: functional
SW-620 = assay: Cytotoxicity against human SW620 cells; format: functional
TK-10 = assay: Cytotoxicity against human TK10 cells; format: functional
SR = assay: Cytotoxicity against human SR cells; format: functional
HCC 2998 = assay: Cytotoxicity against human HCC2998 cells; format: functional
SF-295 [3] = assay: Cytotoxicity against human SF295 cells; format: functional
SNB-19 = assay: Cytotoxicity against human SNB19 cells; format: functional
MDA-MB-231 = assay: Cytotoxicity against human MDA-MB-231 cells; format: functional
A549 [4] = assay: Cytotoxicity against human A549 cells after 48 hrs; format: functional, cell-based; settings: A549, 48 h
SK-MEL-5 = assay: Cytotoxicity against human SK-MEL-5 cells; format: functional
MDA-MB-435 = assay: Cytotoxicity against human MDA-MB-435 cells; format: functional
SK-OV-3 = assay: Cytotoxicity against human SKOV3 cells; format: functional
LOX IMVI = assay: Cytotoxicity against human LOXIMVI cells; format: functional
SF-295 [5] = assay: Cytotoxicity against human SF295 cells after 1 hr; format: functional, cell-based; settings: SF-295, 1 h
ACHN = assay: Cytotoxicity against human ACHN cells; format: functional
NCI-H23 = assay: Cytotoxicity against human NCI-H23 cells; format: functional
UACC-257 = assay: Cytotoxicity against human UACC257 cells; format: functional
DU-145 = assay: Cytotoxicity against human DU145 cells; format: functional
UO-31 = assay: Cytotoxicity against human UO31 cells; format: functional
HOP-62 = assay: Cytotoxicity against human HOP62 cells; format: functional
A549 [6] = assay: Cytotoxicity against human A549 cells; format: functional
SNB-75 = assay: Cytotoxicity against human SNB75 cells; format: functional
OVCAR-4 = assay: Cytotoxicity against human OVCAR4 cells; format: functional
COLO 205 = assay: Cytotoxicity against human COLO205 cells; format: functional
PC-3 = assay: Cytotoxicity against human PC3 cells; format: functional
EKVX = assay: Cytotoxicity against human EKVX cells; format: functional
MDA-N = assay: Cytotoxicity against human MDA-N cells; format: functional
UACC-62 = assay: Cytotoxicity against human UACC62 cells; format: functional
M14 = assay: Cytotoxicity against human M14 cells; format: functional
NCI-H460 = assay: Cytotoxicity against human NCI-H460 cells; format: functional
U-251 = assay: Cytotoxicity against human U251 cells; format: functional
[7] = read-out: pLC50 (the source's name) (converted)

COc1cc(/C=C/c2cc(O)c(C/C=C(\C)CCC=C(C)C)c(O)c2)cc2c1O[C@]1(C)C[C@@H](O)[C@@H](O)C(C)(C)[C@H]1C2 [SCHWEINFURTHIN B]
GI50 (HCT-116): 0.575 µM | LC50 (HCT-116): 22.9 µM | TGI (HCT-116; read-out: pTGI (converted)): 6.61 µM | GI50 (KM12): 1.29 µM | LC50 (KM12): 18.2 µM | TGI (KM12; read-out: pTGI (converted)): 9.33 µM | GI50 (SK-MEL-2): 1.82 µM | LC50 (SK-MEL-2): 46.8 µM | TGI (SK-MEL-2; read-out: pTGI (converted)): 17 µM | GI50 (BT-549): 11 µM | CC50 (BT-549; [7]): 83.2 µM | TGI (BT-549; read-out: pTGI (converted)): 39.8 µM | GI50 (NCI-H522): 3.02 µM | LC50 (NCI-H522): 39.8 µM | TGI (NCI-H522; read-out: pTGI (converted)): 17 µM | GI50 (HOP-92): 0.933 µM | LC50 (HOP-92): 41.7 µM | TGI (HOP-92; read-out: pTGI (converted)): 12.9 µM | GI50 (SN12C): 12 µM | LC50 (SN12C): 67.6 µM | TGI (SN12C; read-out: pTGI (converted)): 28.8 µM | GI50 (HCT-15): 1.91 µM | LC50 (HCT-15): 33.9 µM | TGI (HCT-15; read-out: pTGI (converted)): 6.92 µM | GI50 (MOLT-4): 0.0479 µM | LC50 (MOLT-4): 11 µM | TGI (MOLT-4; read-out: pTGI (converted)): 5.25 µM | GI50 (HL-60): 0.0372 µM | LC50 (HL-60): > 100 µM | TGI (HL-60; read-out: pTGI (converted)): 1.29 µM | IC50 (SF-295 [1]): 0.009 µg/mL (≈ 0.016 µM) | GI50 (IGROV-1): 2.4 µM | LC50 (IGROV-1): 42.7 µM | TGI (IGROV-1; read-out: pTGI (converted)): 18.2 µM | IC50 (SF-295 [2]): 2.9 µg/mL (≈ 5.15 µM) | GI50 (CCRF-CEM): 0.229 µM | LC50 (CCRF-CEM): > 100 µM | TGI (CCRF-CEM; read-out: pTGI (converted)): 6.31 µM | GI50 (NCI-H226): 2.19 µM | LC50 (NCI-H226): 77.6 µM | TGI (NCI-H226; read-out: pTGI (converted)): 14.1 µM | GI50 (NCI-H322M): 3.39 µM | LC50 (NCI-H322M): 42.7 µM | TGI (NCI-H322M; read-out: pTGI (converted)): 17 µM | GI50 (SW-620): 0.676 µM | LC50 (SW-620): 17 µM | TGI (SW-620; read-out: pTGI (converted)): 3.09 µM | GI50 (TK-10): 6.17 µM | LC50 (TK-10): 52.5 µM | TGI (TK-10; read-out: pTGI (converted)): 21.9 µM | GI50 (SR): 0.257 µM | LC50 (SR): 58.9 µM | TGI (SR; read-out: pTGI (converted)): 12 µM | GI50 (HCC 2998): 3.63 µM | LC50 (HCC 2998): 34.7 µM | TGI (HCC 2998; read-out: pTGI (converted)): 11 µM | LC50 (SF-295 [3]): 3.89 µM | GI50 (SF-295 [3]; read-out: pGI50 (converted)): 0.024 µM | TGI (SF-295 [3]; read-out: pTGI (converted)): 0.288 µM | GI50 (SNB-19): 0.398 µM | LC50 (SNB-19): 40.7 µM | TGI (SNB-19; read-out: pTGI (converted)): 15.8 µM | GI50 (MDA-MB-231): 6.46 µM | CC50 (MDA-MB-231; [7]): 81.3 µM | TGI (MDA-MB-231; read-out: pTGI (converted)): 38 µM | IC50 (A549 [4]): 7.1 µg/mL (≈ 12.6 µM) | GI50 (SK-MEL-5): 0.209 µM | LC50 (SK-MEL-5): 28.8 µM | TGI (SK-MEL-5; read-out: pTGI (converted)): 8.91 µM | GI50 (MDA-MB-435): 7.59 µM | CC50 (MDA-MB-435; [7]): 72.4 µM | TGI (MDA-MB-435; read-out: pTGI (converted)): 33.1 µM | GI50 (SK-OV-3): 2.57 µM | LC50 (SK-OV-3): 40.7 µM | TGI (SK-OV-3; read-out: pTGI (converted)): 15.8 µM | GI50 (LOX IMVI): 0.38 µM | LC50 (LOX IMVI): 30.9 µM | TGI (LOX IMVI; read-out: pTGI (converted)): 17 µM | IC50 (SF-295 [5]): > 100 µg/mL | GI50 (ACHN): 4.27 µM | LC50 (ACHN): 43.7 µM | TGI (ACHN; read-out: pTGI (converted)): 20 µM | GI50 (NCI-H23): 3.24 µM | LC50 (NCI-H23): 51.3 µM | TGI (NCI-H23; read-out: pTGI (converted)): 19.1 µM | GI50 (UACC-257): 5.75 µM | LC50 (UACC-257): 46.8 µM | TGI (UACC-257; read-out: pTGI (converted)): 20.9 µM | GI50 (DU-145): 3.39 µM | CC50 (DU-145; [7]): 50.1 µM | TGI (DU-145; read-out: pTGI (converted)): 19.1 µM | GI50 (UO-31): 0.0759 µM | LC50 (UO-31): 5.25 µM | TGI (UO-31; read-out: pTGI (converted)): 0.912 µM | GI50 (HOP-62): 0.851 µM | LC50 (HOP-62): 40.7 µM | TGI (HOP-62; read-out: pTGI (converted)): 14.1 µM | GI50 (A549 [6]): 0.339 µM | LC50 (concentration killing 50% of cells) (A549 [6]): 38.9 µM | TGI (A549 [6]; read-out: pTGI (converted)): 14.1 µM | GI50 (SNB-75): 0.0251 µM | LC50 (SNB-75): 60.3 µM | TGI (SNB-75; read-out: pTGI (converted)): 1.82 µM | GI50 (OVCAR-4): 12 µM | LC50 (OVCAR-4): 77.6 µM | TGI (OVCAR-4; read-out: pTGI (converted)): 50.1 µM | GI50 (COLO 205): 0.617 µM | LC50 (COLO 205): 6.76 µM | TGI (COLO 205; read-out: pTGI (converted)): 2.4 µM | GI50 (PC-3): 0.251 µM | CC50 (PC-3; [7]): 42.7 µM | TGI (PC-3; read-out: pTGI (converted)): 12.9 µM | GI50 (EKVX): 0.933 µM | LC50 (EKVX): 38 µM | TGI (EKVX; read-out: pTGI (converted)): 14.1 µM | GI50 (MDA-N): 3.39 µM | CC50 (MDA-N; [7]): 28.8 µM | TGI (MDA-N; read-out: pTGI (converted)): 15.1 µM | GI50 (UACC-62): 0.331 µM | LC50 (UACC-62): 10 µM | TGI (UACC-62; read-out: pTGI (converted)): 2.29 µM | GI50 (M14): 0.141 µM | LC50 (M14): 4.17 µM | TGI (M14; read-out: pTGI (converted)): 1.2 µM | GI50 (NCI-H460): 0.269 µM | LC50 (NCI-H460): 57.5 µM | TGI (NCI-H460; read-out: pTGI (converted)): 12.9 µM | GI50 (U-251): 0.2 µM | LC50 (U-251): 49 µM | TGI (U-251; read-out: pTGI (converted)): 24 µM
